According to patent US12447216B2, “Biogenic hemin-based MRI contrast agents, and compositions and methods thereof” (University of Massachusetts, priority 2017, dated 2025):

Experiments:
[1] = T1 relaxivity (r1) measurement and T1-weighted in vitro MR imaging; type: physicochemical
Procedure: Hematin was studied for its properties in MR imaging.
(§1) FIG. 1 is a graph showing r1 values and 1/T1 values according to Fe concentrations of metalloporphyrin-based MRI-CAs after dispersion in water. […] To further evaluate its MRI performance in vivo, hematin at a dose of 2 mg/kg/day, which is within the recommended range for clinical use, was administered into the tail veins of nude mice.
The composition of the prepared He-PEG was confirmed by NMR spectroscopy. […] The ^1H NMR spectrum of the He-PEG nanoparticles confirmed the successful conjugation of He with PEG2000. The magnetic property of the produced He-PEG particles was determined by measuring the longitudinal relaxivity values, which referred to the slope of the 1/T1 (R1) plot versus Fe ion concentration.
FIGS. 5 and 6 show r1 values and 1/T1 values according to Fe concentrations of He—OH after dispersion in water.

[2] = design: species or system mice; settings: mouse, in vivo, iv
Excerpt: (§2) The biocompatibility of hematin for injection was comprehensively investigated, for example, via blood routine examination, histological analysis, and body weight monitoring.
Another group of mice injected with PBS were used as control.
Meanwhile, blood samples were collected at different intervals after treatment with HeOH-PEG. […] Another group of mice injected of PBS were used as control.

[3] = Histological analysis (hematoxylin and eosin) of major organs; type: in vivo; settings: mice; 14 days after administration
Procedure: as §2
Subsequently, hematoxylin and eosin examinations were performed on major organs (e.g., heart, liver, spleen, lung, and kidney) collected from healthy mice and those treated with HeOH-PEG. […] No significant differences were found between the cellular morphology of the studied organs in the HeOH-PEG treated group and the control group (FIG. 10).

[4] = In vivo MR imaging / MR angiography after tail vein injection; settings: nude mice, 2 mg/kg/day, FIG. 2
Procedure: as §1
To study the potential application of HeOH-PEG for in vivo MRI, a series of MR imaging were performed at different time points after HeOH-PEG was injected via tail vein into health node mice (500 μL, 0.48 mmol […] per kg mice). FIG. 11 is the 3D image of MR angiography acquired from the mouse after intravenous injection with HeOH-PEG.
The MR signal enhancement with excellent contrast in the vasculature lasted until 60 min post injection.

[5] = Body weight monitoring after tail vein injection; type: in vivo; settings: mice, versus PBS control, 2 weeks
Excerpt: as §2

[6] = only in a rare case; cited from earlier work

C=CC1=C(C)c2cc3[n-]c(cc4[n-]c(cc5nc(cc1n2)C(C)=C5C=C)c(C)c4CCC(=O)O)c(CCC(=O)O)c3C.O.[Fe+2] [hematin]
T1 relaxivity value ([1]; 3.0 T MR scanner, dispersion in water, FIG. 1): 0.424 mM⁻¹ s⁻¹
r1 value (longitudinal relaxivity, slope of 1/T1 versus Fe ion concentration) ([1]; dispersion in water): 0.424 s^−1 mM^−1 Fe
T1-weighted in vitro MR imaging signal ([1]; various Fe concentrations): concentration-dependent brightening effect
blood routine examination parameters versus normal range [2]: within the normal range
histological changes in heart, liver, spleen, lung and kidney [3]: no obvious histological changes
T1 signal in vivo after intravenous administration [4]: increase in the T1 signal was clearly observed in the heart and large vessel
body weight change [5]: no significant changes compared to the control group
excessive hematin dose reported to induce reversible renal shutdown [6]: 12.2 mg/kg
